{"source": "patent EP3338772A1", "about": "“[…] COMPOSITIONS STABILIZED BY HYDROXYCARBOXYLIC ACIDS , THE PRODUCTION THEREOF AND HIGHLY CONCENTRATED MAGNESIUM COMPOSITIONS” (Merz Pharma GmbH & Co. KGaA, priority 2016, dated 2018)", "origin": "cited, not measured here", "key": {"[1]": {"details": "water"}}, "note": "Read-outs that look alike come from different tables or passages of the source."}
{"substance": "Calcium-Magnesium-Lactat-Citrat-Komplex", "values": [{"measurement": "Löslichkeit in Wasser, Calcium", "setting": "[1]", "value": 900, "unit": "mg/L"}, {"measurement": "Löslichkeit in Wasser, Magnesium", "setting": "[1]", "value": 300, "unit": "mg/L"}]}
{"substance": "Trimagnesiumdicitrat*Nonahydrat (C12H10O14Mg3*9H2O)", "values": [{"measurement": "Löslichkeit", "setting": "25 °C", "value": "18,14 g(Mg^2+)kg^-1H2O"}]}
{"substance": "Trimagnesiumdicitrat*Tetradecanhydrat (C12H10O14Mg3*14H2O)", "values": [{"measurement": "Löslichkeit", "setting": "22 °C", "value": "19,40 g(Mg^2+)kg^-1H2O"}, {"measurement": "maximale Magnesium-Konzentration", "setting": "Raumtemperatur, without hydroxycarboxylic acid", "value": "19,40 g(Mg^2+) kg^-1 (Wasser)"}]}
